Results reported in ChEMBL document CHEMBL4038282 (Eur J Med Chem, 2017).

What was measured:
MDA-MB-231 [1] = experiment: Antiproliferative activity against human MDA-MB-231 cells up to 72 hrs by MTT assay; format: functional, cell-based; conditions: MDA-MB-231, 72 h
MDA-MB-231 [2] = experiment: Potency index, ratio of curcumin IC50 to compound IC50 for human MDA-MB-231 cells; format: functional
HCT-116 = experiment: Antiproliferative activity against human HCT116 cells up to 72 hrs by MTT assay; format: functional, cell-based; conditions: HCT-116, 72 h
PC-3 = experiment: Antiproliferative activity against human PC3 cells up to 72 hrs by MTT assay; format: functional, cell-based; conditions: PC-3, 72 h

Row | IC50 (MDA-MB-231 [1]) [µM] | IC50 (HCT-116) [µM] | IC50 (PC-3) [µM] | Compound | Ratio IC50 (MDA-MB-231 [2])
1 | 2.7 | – | – | COc1ccc(/C=C/C(=O)C(C)(C)C(=O)/C=C/c2ccc(OC)c(OC(=O)C(C)(CO)CO)c2)cc1OC(=O)C(C)(CO)CO | 2.4 - 12.2
2 | 2.55 | 4.77 | 7.64 | COc1ccc(/C=C/C(O)=C/C(=O)/C=C/c2ccc(OC(=O)C(C)(CO)CO)c(OC)c2)cc1OC | 2.4 - 12.2
3 | 2.29 | 1.95 | 2.32 | COc1ccc(/C=C/C(O)=C/C(=O)/C=C/c2ccc(OC)c(OC(=O)C(C)(CO)CO)c2)cc1O | 2.4 - 12.2
4 | 4.66 | 11.4 | 12.5 | CCC(CO)(CO)C(=O)Oc1ccc(/C=C/C(=O)/C=C(O)/C=C/c2ccc(O)c(OC)c2)cc1OC | 2.4 - 12.2
